Reference: patent US11299524B2, “KIF13B-derived peptide and method of inhibiting angiogenesis” (THE BOARD OF TRUSTEES OF THE UNIVERSITY OF ILLINOIS, priority 2016, dated 2022)

Legend:
VEGFR2 = VEGFR2 (Homo sapiens, UniProt P35968); test: pull-down binding assay with endogenous VEGFR2 from HUVEC lysates; parameters: endogenous in cells; host or cells: HUVEC; settings: HUVEC lysate, anti-VEGFR2 western blot
Source text: Truncated mutants of KIF13B were expressed in BL21 (DE3) or Rosetta-gami and purified as previously described (Yamada, et al. (2014) J. Cell Sci. 127:4518-30; Yamada, et al. (2007) Biochemistry 46:10039-45).
Using recombinant proteins, the binding sites on KIF13B mediating the interaction with VEGFR2 were identified. KIF13B has a motor, forkhead-associated, membrane-associated guanylate kinase-binding stalk, 2 domains of unknown function (DUFs) (DUF3694), and a proline-rich and cytoskeleton-associated protein glycine-rich domain. The DUFs were identified from amino acid sequence similarity on the Pfam database. It has been previously shown that both domains of DUF3694 directly bind recombinant VEGFR2 in vitro (Yamada, et al. (2007) Biochemistry 46:10039-45). To define the specific peptide sequence inhibiting VEGFR2 trafficking, further analysis of the second DUF3694 domain (DUF2, residues 1112-1281 of KIF13B) was carried out. This was based on stability of this domain and a sequence distinct from binding sites for other cargoes of KIF13B (Horiguchi, et al. (2006) J. Cell Biol. 174:425-436; Hanada, et al. (2000) J. Biol. Chem. 275:28774-2878). DUF2 was divided into 3 parts, DUF2A (residues […]), DUF2B (residues 1168-1216), and DUF2C (residues 1217-1281) and each part was expressed as a recombinant protein in bacteria. VEGFR2 was abundantly expressed in HUVECs; thus, cell lysate from HUVECs was incubated with these recombinant proteins on beads, and VEGFR2 binding was determined using the anti-VEGFR2 antibody.
To identify the minimum binding site on VEGFR2, DUF2C was further truncated (DUF2C1-9) (FIG. 1). […] Stability of the C5 peptide was attributed to the 4-6 C-terminal residues. Accordingly, replacing these C-terminal residues with another a peptide, one or more post-translational modifications, one or more non-natural amino acid residues, a macromolecule such as PEG, or a combination thereof, is expected to stabilize the KAI peptide.
Initially, peptide interaction with VEGFR2 was confirmed using the pull-down assay.
To further define the KIF13B residues involved in binding to VEGFR2, truncations of the DUF2C5 peptide were tested for binding to VEGFR2 (Table 3) and compared to binding of DUF2C5 and peptides flanking this region (FIG. 1).

HUVECs [1] = test: VEGF-induced proliferation, WST-1 assay; type: cell-based, human; settings: 3 μmol/L
Description: VEGF-induced proliferation and viability of HUVECs were assessed by the WST-1 assay (Roche) as previously described (Cai, et al. (2006) Microvasc. Res. 71:20-31; Jones, eta 1. (2005) Br. J. Pharmacol. 145:1093-102). […] Then HUVECs were stimulated with VEGF (2.2 nmol/L), with and without DUF2C5 (1, 3, and 10 μmol/L), or negative control peptide (CT23, 3 μmol/L) for 48 hours to test VEGF-induced proliferation by WST-1 assay in a 96-well format.
The effects of DUF2C5 on VEGF-induced proliferation were subsequently determined by the WST-1 assay.

HUVECs [2] = test: scratch wound healing assay; type: cell-based, human
Description: (§1) Collagen invasion assay was performed as previously described (Kang, et al. (2011) J. Biol. Chem. 286:42017-26). In vitro capillary network formation on […] (BD Biosciences, San Jose, Calif.) and scratch wound healing assay were performed as previously described (Humtsoe, et al. (2010) Mol. Cell Biol. 30:1593-1606). Fibrin gel sprouting assay was performed as described by Nakatsu & Hughes ((2008) Methods Enzymol. 443:65-82). VEGF (2.2 nmol/L) stimulation was used for all in vitro angiogenesis assays. Transwell migration assay was performed as described by Kaplan, et al. ((2011) Free Radical Res. 45:1124-35) using VEGF (4.4 nmol/L), sphingosine-1-phosphate (S1P) (1 μmol/L), or basic fibroblast growth factor (bFGF) (50 ng/mL) in the presence or absence of kinesin-derived angiogenesis inhibitor (DUF2C5; residues 1238-1260 of KIF13B) at varying concentrations.
(§2) EC migration in response to DUF2C5 was determined using the scratch wound healing assay. […] The […] migration assay was also employed to determine whether the inhibitory effect of DUF2C5 on EC migration was specific to VEGF. HUVECs were placed in the […] chamber with or without DUF2C5 or CT23. […] PBS and CT23 had no effect on EC migration induced by all stimuli.

HUVECs [3] = test: […] migration assay; type: cell-based, human; settings: TRANSWELL
Description: Specificity of the inhibitory effect of DUF2C5 was determined by EC migration induced by different stimuli in a […] migration assay. HUVECs migrated toward 2.2 nmol/L VEGF, 50 ng/mL basic fibroblast growth factor (bFGF), or 1 μmol/L sphingosine-1-phosphate (S1P) were visualized by hematoxylin staining, and number of migrated cells were counted. Data are expressed as means±SEM. N=3. *P<0.05 (one-way analysis of variance and Bonferroni multiple comparisons test).
as §1, §2

HUVECs [4] = test: uptake of biotin-tagged peptides by HUVECs, flow cytometry; type: cell-based, human; settings: biotin-tagged peptide, 2 hours incubation
Description: Next, EC uptake of the peptides by HUVECs was determined. Both DUF2C5 and CT23 were designed to have high pI (pH at which the molecules carry no net charge), pI 12.1 and 10.4, respectively; thus, in neutral pH, both peptides have a positive charge important for cellular uptake (Jones, et al. (2005) Br. J. Pharmacol. 145:1093-1102). DUF2C5 and CT23 were synthesized with a biotin-tag and visualized using streptavidin-[…].

HUVECs [5] = test: VEGF-induced capillary network formation on […] in vitro; type: cell-based, human; settings: synthetic peptide added
Description: as §1
To test the bioactivity of the truncated mutant of KIF13B, DUF2C was expressed by lentivirus vector in HUVECs. […] The collagen invasion system (Kang, et al. (2011) J. Biol. Chem. 286:42017-42026) was used as another angiogenesis assay to test the peptides. After infection with control lentivirus, FLAG-DUF2C, or FLAG-DUF2, HUVECs were seeded on collagen gels. Cell invasion in response to proangiogenic stimuli SIP and VEGF in the gel was monitored for up to 24 hours.
Bioactivities in two-dimensional capillary network formation assay were assessed in HUVECs expressing KIF13B truncated mutants or vector controls. HUVECs were infected with lentiviruses encoding FLAG-C2, -C3, -C5, -C8, -C9, or vector.
Changes in VEGF-induced network formation assay were assessed in […] plugs. […] VEGF-induced EC sprouting was also determined by 3-dimensional culture of HUVECs on beads (Nakatsu & Hughes (2008) Methods Enzymol. 443:65-82).

Sequence of VEGFR2 (P35968 20-1356): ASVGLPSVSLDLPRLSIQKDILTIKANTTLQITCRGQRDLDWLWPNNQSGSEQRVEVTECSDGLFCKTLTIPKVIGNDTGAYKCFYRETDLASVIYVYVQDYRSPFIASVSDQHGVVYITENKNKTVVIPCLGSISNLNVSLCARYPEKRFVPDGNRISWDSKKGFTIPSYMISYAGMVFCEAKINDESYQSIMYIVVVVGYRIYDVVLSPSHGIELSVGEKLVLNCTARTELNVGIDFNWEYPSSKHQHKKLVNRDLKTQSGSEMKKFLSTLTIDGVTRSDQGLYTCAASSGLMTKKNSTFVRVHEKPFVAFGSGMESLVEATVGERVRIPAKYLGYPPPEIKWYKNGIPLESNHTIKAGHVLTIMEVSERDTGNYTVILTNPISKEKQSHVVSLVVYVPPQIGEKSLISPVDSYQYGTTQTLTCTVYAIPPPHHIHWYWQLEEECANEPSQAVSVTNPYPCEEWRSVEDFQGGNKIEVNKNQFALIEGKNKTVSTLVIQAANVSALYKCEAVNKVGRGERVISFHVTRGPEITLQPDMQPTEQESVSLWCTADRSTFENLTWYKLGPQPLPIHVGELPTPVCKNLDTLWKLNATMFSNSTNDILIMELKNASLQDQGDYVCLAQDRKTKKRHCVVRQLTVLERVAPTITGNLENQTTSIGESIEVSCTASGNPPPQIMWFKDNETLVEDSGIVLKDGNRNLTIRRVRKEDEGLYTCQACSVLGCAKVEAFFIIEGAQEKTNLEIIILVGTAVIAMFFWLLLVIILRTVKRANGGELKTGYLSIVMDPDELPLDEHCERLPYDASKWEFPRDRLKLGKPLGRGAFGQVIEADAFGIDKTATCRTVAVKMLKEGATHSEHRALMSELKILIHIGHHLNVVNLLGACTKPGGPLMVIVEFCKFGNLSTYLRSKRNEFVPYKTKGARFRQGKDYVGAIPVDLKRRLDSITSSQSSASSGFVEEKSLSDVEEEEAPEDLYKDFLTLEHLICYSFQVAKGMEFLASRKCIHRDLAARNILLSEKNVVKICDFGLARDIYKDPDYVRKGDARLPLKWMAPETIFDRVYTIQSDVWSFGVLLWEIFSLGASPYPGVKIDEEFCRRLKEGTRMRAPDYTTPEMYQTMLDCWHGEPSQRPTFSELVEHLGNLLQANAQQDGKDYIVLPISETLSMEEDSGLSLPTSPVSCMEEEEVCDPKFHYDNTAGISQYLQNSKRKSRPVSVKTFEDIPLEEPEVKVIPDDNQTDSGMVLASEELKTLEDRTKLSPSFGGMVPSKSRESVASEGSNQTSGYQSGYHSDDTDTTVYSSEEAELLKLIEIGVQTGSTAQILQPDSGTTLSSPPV

VEGFR2 binding (VEGFR2): did not interact with VEGFR2
Substance: CT23: negative control, C-terminal 23-amino acid peptide, residues 1650 to 1672 of KIF13B (RVRASELRSFSRMLAGDPGCSPG)
VEGF-induced proliferation (HUVECs [1]): had no effect
VEGF-induced migration of HUVECs (wound closure) (HUVECs [2]): migrated and closed the wound
bFGF-induced EC migration (HUVECs [3]; stimulus 50 ng/mL bFGF): had no effect
S1P-induced EC migration (HUVECs [3]; stimulus 1 μmol/L S1P): had no effect
VEGF-induced EC migration (HUVECs [3]; stimulus VEGF): had no effect
uptake of the peptides by HUVECs (HUVECs [4]): shown to internalize
VEGF-induced network formation (HUVECs [5]): had no effect
